Test results reported in ChEMBL document CHEMBL3507680, “University of Dundee, Gates Library screen for HepG2 cell viability”.

Assay: Human HepG2 cell viability assay in 384 well format
Type: toxicity, cell-based
Set-up: dose 125 nL, time 70.5 hour; concentration not given beside the values
Details: HepG2 cells, read-out: Inhibition

Row | Compound | cytotoxicity at 70.5 h
1 | O=C(NCC1CCC1)c1ccnc(-n2ccnc2)c1 | 1.75%
2 | O=C(Cc1cccc(F)c1)N1C[C@H]2CN(Cc3ccccn3)C[C@H]2C1 | -6.98%
3 | CNC(=O)[C@@H]1C[C@H]2CN(Cc3ccc(C)o3)C[C@H]2N1C(C)=O | -0.0424%
4 | Cn1cc(S(=O)(=O)NCCc2nnc3ccccn23)cn1 | -4.25%
5 | CC(C)Nc1ccnc(N2Cc3cnc(C(C)(C)C)nc3C2)n1 | 17.3%
6 | Cc1cccnc1N1CCN(C(=O)C(C)n2ccnc2C(C)C)CC1 (configuration not stated) | -2.78%
7 | CN(C)C(=O)C1CCCN1CCCNC(=O)c1ccccc1F (configuration not stated) | -1.14%
8 | CCc1nc(NCc2ccccn2)c2c(n1)c(C)nn2C | 30.9%
9 | COCc1nn(Cc2ccc(Br)s2)c(=O)o1 | -9.84%
10 | CNC(=O)[C@@H](c1ccccc1F)N1CCC[C@H]1C(=O)NC1CCOCC1 | -12.5%
11 | CCC(=O)N1CC[C@@H]2[C@H](CC1)N(Cc1cccc(C)n1)CCS2(=O)=O | 1.51%
12 | Cc1cc(C)n(-c2cncc(N3CCN(C(=O)C(C)(C)C)CC3)n2)n1 | 1.04%
13 | O=C(NC1CC1)c1cc(Sc2ncccn2)ccn1 | -14.6%
14 | O=C(Cc1ccccc1)N1CCN(Cc2noc(C3CC3)n2)CC1 | -1.85%
15 | CN(Cc1ccc2nsnc2c1)C(=O)Cn1ncc(N(C)C)cc1=O | -7.03%
16 | CCOc1ccc(Cl)c(C(=O)N2CCN(c3ccncc3)CC2)n1 | -13.6%
17 | Cn1ccnc(Sc2ccc(O)cc2)c1=O | -14.3%
18 | CC(NCc1ccccc1Cl)c1ccc(OCC(=O)NC2CC2)cc1 (configuration not stated) | 0.704%
19 | CCCN(C)C(=O)c1cc(Br)cc(S(=O)(=O)N2CCOCC2)c1F | 6.3%
20 | COCCN(Cc1ccccc1Cl)c1nc(CCN)nc2ccccc12 | -6.84%
21 | O=C(O)c1csc(S(=O)(=O)N2CCCc3ccc(F)cc32)c1 | -0.904%
22 | CCCn1nccc1-c1nccnc1CC1CCN(C(C)=O)CC1 | -2.55%
23 | CC(=O)N1CCC2(CC1)CC(NC(=O)N(C)C)c1cc(C)ccc12 (configuration not stated) | -5.6%

Row | Compound | cytotoxicity at 70.5 h
24 | Cc1ccc(CN2CCOC3(CCN(CC4CCOC4)CC3)C2)cc1 (configuration not stated) | -1.57%
25 | COc1c(CNCCNC(=O)c2ccc(C)cc2)c(C)nn1C | 8.52%
26 | Cn1cc(CN2CCC(c3cc(CCO)[nH]n3)C2)cn1 (configuration not stated) | -8.16%
27 | CCN(CC1CCOC1)C(=O)CCc1nc(C(C)(C)C)no1 (configuration not stated) | -10.1%
28 | Cc1nn(C)c(C)c1C1CCCN1C(=O)c1ccc(CN(C)C)cc1 (configuration not stated) | 15.1%
29 | O=C(CC1CN(Cc2ccccc2)CCO1)NC1CCCC1 (configuration not stated) | 11.6%
30 | Cc1noc(C)c1CN1CC2(CCN(C(=O)c3cscn3)CC2)CC1=O | -10.1%
31 | CCC(NC(=O)c1cc(CC(C)C)nn1C)c1cccc(C)n1 (configuration not stated) | 8.39%
32 | COc1cccc(CN2CCCCCC2c2sccc2C)c1O (configuration not stated) | 1.85%
33 | Cc1cnc(CNc2ncc(C)c(-c3cnn(C)c3)n2)cn1 | -14.1%
34 | CS(=O)(=O)NCc1cnc2n1CCN(Cc1ccsc1)CC2 | 8.08%
35 | Cc1noc(C2(NC(=O)c3cccnc3O)CCCCC2)n1 | 2.75%
36 | Cc1nc(CO[C@@H]2CN(Cc3ccco3)[C@@H]3COC[C@@H]32)cs1 | -14.3%
37 | COc1ccccc1CNCc1nn(-c2ccccc2)c2c1CCC2 | 0.28%
38 | CN(Cc1ccc(Cl)s1)C(=O)Cn1nc(-c2ccc(F)cc2)oc1=O | -13.3%
39 | COCCN1CCC2(CC1)CN(C(=O)c1cccs1)CCO2 | 33.9%
40 | COCCN1CCOCC12CCN(c1cnccn1)CC2 | -6.94%
41 | CN(CC(F)(F)F)C(=O)CNC(=O)N1CCCC(C(F)(F)F)C1 (configuration not stated) | -2.98%
42 | c1cc(-c2n[nH]cc2-c2ccnc(N3CCCCCC3)n2)ccn1 | 0.607%
43 | COc1nccc(N2CC[C@H](CO)[C@@H](O)C2)c1C#N | -6.06%
44 | O=C(O)CCc1cn(C2CCN(c3ncccc3Cl)CC2)nn1 | 7.14%
45 | Cc1cnc(C)c(N2CCCC(CO)(Cc3ccccc3C)C2)n1 (configuration not stated) | 11.4%
46 | O=C1CSC(C(F)(F)F)c2c(O)nn(C3CCCC3)c2N1 (configuration not stated) | -22.6%

Row | Compound | cytotoxicity at 70.5 h
47 | Cc1cc(C)c2c(NCCC3(O)CCCC3)ncnc2n1 | -6.61%
48 | CC(=O)Nc1ccc(CNC2COc3c2ccc(C)c3C)cc1 (configuration not stated) | 15.7%
49 | Cc1cccc(CN(C)Cc2nc3c(cnn3C)c(=O)[nH]2)c1 | -14.2%
50 | CCc1csc(C2CCCN(C(=O)c3ccc(=O)n(C)n3)C2)n1 (configuration not stated) | -11.3%
51 | O=C(CN1CCCC1Cn1cncn1)NCCOc1ccccc1 (configuration not stated) | -2.53%
52 | Cc1ncc(C)c(N2CCC(CCc3ccccc3)(C(=O)O)CC2)n1 | -10.1%
53 | Cc1c(NC(=O)NC2CCOCC2)cccc1C(=O)N1CCCC1 | 10.6%
54 | CN(C)c1nccnc1N1CC[C@@]2(O)CCNC[C@H]2C1 | 9.65%
55 | CN1CCN(C(=O)Cc2ccc(S(=O)(=O)C(F)F)cc2)CC1 | -8.11%
56 | CC(CNS(C)(=O)=O)c1ccc(F)c(F)c1 (configuration not stated) | -1.08%
57 | CCS(=O)(=O)CCN1CCN(C2CCC(C(C)C)CC2)CC1 (configuration not stated) | 11.5%
58 | CCn1cc(NC(=O)C(C)n2ncc(Cl)c2C)c(C(=O)NC)n1 (configuration not stated) | -3.34%
59 | Cn1cncc1CN1CCOC(Cc2ccccc2)C1 (configuration not stated) | -8.78%
60 | c1cnc(N2CCO[C@H]3[C@H](OCc4cccnc4)CC[C@@H]32)nc1 | 13.6%
61 | Cc1nc(C2CCCN2C(=O)Cn2cncn2)no1 (configuration not stated) | -9.87%
62 | COc1ccccc1OCCNc1snc(Cl)c1C#N | -15.5%
63 | O=C(NCCC1CCN(CC(F)(F)F)CC1)C1CCCO1 (configuration not stated) | -1.77%
64 | CN(C)CCOCc1nnc2n1CCN(c1cnccn1)CC2 | 12.4%
65 | CCCC(=O)Nc1ccc(CC(=O)N(C)CCc2cn[nH]c2)cc1 | -7.4%
66 | Cc1cnn(C2CN(C(C)c3nc(-c4ccccc4)no3)C2)c1 (configuration not stated) | -8.84%
67 | Cc1cc(S(C)(=O)=O)c(C)c(S(=O)(=O)N2CCN(C)CC2)c1 | 32.6%
68 | O=C(N[C@H]1CCCC[C@@H]1O)c1cccc(-c2nc3ccccc3[nH]2)c1 | -2.51%
69 | CN(Cc1ccco1)[C@@H]1CN(C(=O)c2ccnnc2)[C@@H]2CCCO[C@H]12 | 1.48%

Row | Compound | cytotoxicity at 70.5 h
70 | Cc1cc(NC(=O)CCN2CCCC2Cn2cncn2)no1 (configuration not stated) | 1.41%
71 | Cc1nn(C)c2c(=O)n(Cc3ccc(C#N)cc3)nnc12 | -10.1%
72 | CCc1ncnc2c1CCN(Cc1cccs1)CC2 | -7.19%
73 | CN(C)S(=O)(=O)N1CC[C@]2(C[C@@H](Oc3cccnc3)CO2)C1 | -5.96%
74 | c1cc(CN2CCCN(c3ccc4cc[nH]c4n3)CC2)ccn1 | -1.4%
75 | CNC(=O)NC(=O)C(C)N(C)CCCc1cc(-c2ccccc2)no1 (configuration not stated) | -1.15%
76 | Cc1ccc(CC(NC(=O)Cn2cnnn2)c2ccccn2)cc1 (configuration not stated) | -1.31%
77 | O=C(Nc1cccc(CN2CCOC2=O)c1)N1CCSCC1 | -10.5%
78 | CC(C)(C)NC(=O)c1cnc2n1CCCC2 | -6.71%
79 | Cc1cc2c(o1)CC(C)(C)CC2NC(=O)CNC(=O)C1CC1 (configuration not stated) | -2.04%
80 | Cc1ccc(N2CCN(C(=O)CN3C[C@@H]4CC[C@H]3C4)CC2=O)cc1 | 24.1%
81 | O=C1CN([C@@H]2CC[C@@H](NS(=O)(=O)c3ccccc3F)[C@H]2O)CCN1 | 25.1%
82 | O=C(Nc1cccc(F)c1)NC1CCN(Cc2ccncc2)CC1 | -15.3%
83 | CCn1ccnc1CN1CCCN(C(=O)Cc2ccc(F)cc2)CC1 | 17.5%
84 | CSCCC(Nc1nc(C)cc(C)n1)C(=O)NC1CC1 (configuration not stated) | -10.9%
85 | CCCN1CCN(C(=O)c2ccc3nc(C)oc3c2)[C@H]2CS(=O)(=O)C[C@H]21 | -7.59%
86 | COc1ccc(-c2nc(C3(NC(=O)OC(C)(C)C)CCC3)no2)cn1 | -3.79%
87 | CCCN(CCc1ccccn1)C(=O)Cn1cc(C)cn1 | -4.61%
88 | COc1ccc(C(=O)N(C)Cc2c(C)noc2C)cn1 | -4.2%
89 | Cc1ccc(-c2nc(CN3CCOC(c4ccccc4)C3)cs2)o1 (configuration not stated) | -9.61%
90 | Cn1c(C2CC2)nc2c1CCN(Cc1nc(-c3ccsc3)no1)C2 | -10.5%
91 | Cn1ccnc1C(=O)N[C@@H]1CN(Cc2ccoc2)[C@@H]2CCCO[C@@H]21 | -2.77%
92 | Cc1ccc(CN2Cc3c(C(=O)N4CCOCC4)nn(C)c3C2)s1 | -2.1%

Row | Compound | cytotoxicity at 70.5 h
93 | COc1ccc2c(C)c(C(=O)NCCCc3csc(N)n3)oc2c1 | 8.41%
94 | CCOc1ccc(Br)cc1C1CCCN1 (configuration not stated) | 18.6%
95 | CC(=O)N(Cc1noc(C2CC2)n1)C1CCN(CC(=O)NC2CC2)C1 (configuration not stated) | -7.63%
96 | CC(C)c1cc(C(=O)N2CCN(C)[C@@H]3CS(=O)(=O)C[C@@H]32)no1 | -7.29%
97 | Cc1sc(-c2ccco2)nc1C(=O)N(CC1CCOC1)C1CC1 (configuration not stated) | -1.94%
98 | Cc1ccc(CN2CC[C@H]3[C@H](CO[C@H]3CN(C)C)C2)o1 | -11.7%
99 | CC(C)(C)NC(=O)COc1ccc(CNCCOc2ccccn2)cc1 | -2.01%
100 | CCc1nnc(CN(CC)C(=O)C2CC(=O)N(C(C)(C)C)C2)o1 (configuration not stated) | -4.84%
101 | COc1cc(C)c(S(=O)(=O)CC(=O)N(C)C(C)C)cc1OC | -5.84%
102 | CN(c1cccnc1N1CCCC1)S(=O)(=O)c1cccs1 | 12.7%
103 | c1ccc(OCc2noc3c2CN(c2ncccn2)CC3)nc1 | -6.14%
104 | Cc1cc(C)c(CNC(=O)NCCNc2cnccn2)c(=O)[nH]1 | -4.64%
105 | CC(Nc1ncnc2c1CCNCC2)c1nc2c(s1)CCCC2 (configuration not stated) | -5.82%
106 | CCCc1n[nH]cc1C(=O)NCC1COc2cc(OC)ccc2C1 (configuration not stated) | 14.2%
107 | Cc1c(NC(=O)c2ccc(Br)cc2)c(C(=O)N(C)C)nn1C | -6.74%
108 | Cc1cc(C(=O)N2CCN(C)CC2)nn1CC(=O)NCc1cccs1 | -4.64%
109 | Cc1nc(CNC(=O)CCCc2cccs2)no1 | -5.14%
110 | CN1CCN(C2CCN(Cc3cn4ccccc4n3)CC2)C1=O | 19.5%
111 | COc1cc(-c2nc(CN(CCO)CCO)c(C)o2)ccc1F | 2.15%
112 | COCCN1C(=O)[C@H]2CC[C@@H]1CN(c1nccc(C3CCCC3)n1)C2 | -4.32%
